The values below come from US20220040133A1.

The subject of one data set is Baf3-p210 cells. The experiment in a line: Survival of Balb/c mice with Baf3-p210 syngeneic ALL tumors. Format: in vivo. Conditions: CPI-613 250 mg/kg gavage once daily combined with doxorubicin 3 mg/kg IP for three days; compared to doxorubicin alone; FIG. 4. The protocol: Balb/c mice were injected into their tail veins with 1 million Baf3-p210 cells on Day 0 and beginning on Day 3, upon confirmation of engraftment by bioluminescence imaging, were treated with saline (control), doxorubicin (3 mg/kg IP in 200 μL PBS), or doxorubicin (3 mg/kg IP in 200 μL PBS) plus CPI-613 (250 mg/kg gavage of a 25 mg/mL solution of CPI-613 in 0.05 N NaOH in 5% dextrose, adjusted to pH 7.5-8 with 4% glacial acetic acid). and followed for survival. Doxorubicin was administered once daily for three consecutive days, and CPI-613 was administered once daily until death. P value was determined by log rank test.

Data set [1] deals with relapsed or refractory T-cell lymphoma. Particulars: IV, days 1-4, 8, 11, 15, 18 of a 4 week cycle, 2000 mg/m^2 to 2750 mg/m^2, combined with bendamustine 90 mg/m^2; cited from earlier work.
The conditions of data set [2]: after IV dosing; Pardee et al. 2014; cited from earlier work.
A further data set concerns MFL2 cells. The experiment in a line: Survival of C57Bl/6 mice with MFL2 syngeneic AML tumors. Format: in vivo. The protocol: C57Bl/6 mice were injected into their tail veins with 1 million MFL2 cells (Pardee, T. S. et al., Experimental Hematology, 2011, 39, 473-485) on Day 0 and beginning on Day 7, upon confirmation of engraftment by bioluminescence imaging, were treated by gavage with CPI-613 (300 mg/kg daily except weekends of a 50 mg/mL solution in 0.05 N NaOH in 5% dextrose, adjusted to pH 7.5-8 with 4% glacial acetic acid; 1 animal for the chloroquine experiment), intraperitoneally (IP) with chloroquine (200 μL (ca. 100 mg/kg) daily except weekends of a 10 mg/mL solution in PBS; Chlr; 3 animals), orally with metformin (1 mg/mL in the drinking water with ad lib access), or with a combination of CPI-613 (300 mg/kg daily gavage as above) and either chloroquine (200 μL daily IP as above; 4 animals) or metformin (1 mg/mL ad lib in drinking water as above) and followed for survival. Control animals (1 animal in chloroquine experiment) received both oral and IP vehicles. P value was determined by log rank test.

The conditions of data set [3]: mouse, in vivo.
For data set [4], the system named is metastatic pancreatic adenocarcinoma. Conditions: combined with modified FOLFIRINOX, cited from earlier work.
For data set [5], the system named is BxPC3 pancreatic cancer cells. Briefly: Oral efficacy in human BxPC3 pancreatic cancer xenografts in mice. Format: in vivo. Conditions: BxPC3 xenograft, CD-1 nude mice; oral dose for 4 weeks; FIG. 2. The arrangement: dose or concentration left out as unconfirmed. The protocol:
CD1-Nu/Nu female mice, ˜4-6 weeks old were obtained from Charles River Laboratories. Mice were housed 5 to a cage in a micro-isolator room in the Department of Animal Laboratory Research of New York State University (SUNY) at Stony Brook. Light-dark cycles were 12 h each daily, with light from 7 a.m. to 7 p.m. Food (Purina Rodent Chow) and water (distilled sterile-filtered water, pH 7) were provided ad libitum. Protocols and procedures were according to the rules of and approved by the SUNY Institutional Animal Care and Use Committee (IACUC).
An acclimation period of 7 days was allowed between the arrival of the animal at the study site before tumor inoculation and experimentation. Mice were inoculated subcutaneously (SC) in the right flank with 2×10^6 human H460 NSCLC or BxPC3 pancreatic cancer cells that were suspended in 0.1 mL of Dulbeco's Phosphate Buffered Salt (PBS) solution using a 1 cc syringe with a 27⅝ gauge needle. Tumor dimensions (length and width) were measured daily before, during and after treatment (using Vernier calipers) and the tumor volume was calculated using the prolate ellipsoid formula: (length×width^2)/2. Treatment with test or control articles began 8 days post tumor cell implantation when the tumor was approximately 300 mm^3.
A similar study was conducted in CD-1 nude mice (n=9) inoculated with 2×10^6 BxPC-3 cells. […]
A general note: A xenograft is tissue or cells of one species grown in another, often human tumour cells in immunodeficient mice.

For the next data set, the system named is Human H460 NSCLC cells. Briefly: Oral efficacy in human H460 NSCLC xenografts in mice. Format: in vivo. Conditions: H460 xenograft, CD1-Nu/Nu mice; oral gavage 100 mg/kg on day 8, 15, 22, 29; vs 5% dextrose or untreated; FIG. 1. The protocol: Human H460 NSCLC cells were obtained from American Type Cell Culture (ATCC) (catalog no. HTB-177, Manassas, Va.). These cells tested negative for viral contamination using the Mouse Antibody Production (MAP) test, performed by Charles River Labs Molecular Division, upon the receipt of the tumor cells from ATCC. The tumor cells were maintained at 37° C. in a humidified 5% CO2 atmosphere in T225 tissue culture flasks containing 50 mL of Roswell Park Memorial Institute (RPMI)-1640 solution with 10% Fetal Bovine Serum (FBS) and 2 mM L-glutamine. Cells were split at a ratio of 1:10 every 2-3 days by trypsinization and resuspended in fresh medium in a new flask. Cells were harvested for experiments in the same way at 70-90% confluency.
CD1-Nu/Nu female mice, ˜4-6 weeks old were obtained from Charles River Laboratories. Mice were housed 5 to a cage in a micro-isolator room in the Department of Animal Laboratory Research of New York State University (SUNY) at Stony Brook. Light-dark cycles were 12 h each daily, with light from 7 a.m. to 7 p.m. […]
An acclimation period of 7 days was allowed between the arrival of the animal at the study site before tumor inoculation and experimentation. […] Tumor dimensions (length and width) were measured daily before, during and after treatment (using Vernier calipers) and the tumor volume was calculated using the prolate ellipsoid formula: (length×width^2)/2. […]

The subject of data set [6] is myelodysplastic syndrome (MDS), acute myeloid leukemia (AML), Burkitt lymphoma, and cutaneous T-cell lymphoma (CTCL). Particulars: IV, days 1 and 4 of weeks 1, 2, 3 of a 4 week cycle, 840 mg/m^2 to 2940 mg/m^2 daily; cited from earlier work.

On to `O=C(O)CCCCC(CCSCc1ccccc1)SCc1ccccc1` (stereo not drawn), for which the survival entry with Baf3-p210 cells was “significantly prolongs survival”; in the data set with MFL2 cells (CPI-613 300 mg/kg gavage combined with chloroquine ca. 100 mg/kg IP daily except weekends, FIG. 3A), “significantly prolongs survival”; in the data set on MFL2 cells (CPI-613 300 mg/kg gavage combined with metformin 1 mg/mL in drinking water, FIG. 3B), “significantly prolongs survival”; in the data set on MFL2 cells (CPI-613 300 mg/kg gavage daily except weekends from Day 7, FIGS. 3A, 3B) it was “significantly prolongs survival”. The efficacy in patients result in data set [1] and in data set [6] was “showed efficacy” in each case. In [2], the half-life (as a rule, the time needed for the level to fall by half in the phase considered) was 1 to 2 h. For the same molecule, the “oral bioavailability (in words)” value in [3] is reported as “orally bioavailable”. The objective response in data set [4] (IV 500 mg/m^2 on days 1 and 3 of a two week cycle) is listed as 11 of 18. For the same molecule, the maximum tolerated dose in data set [4] (IV, days 1 and 3 of a two week cycle) is on record as 500 mg/m^2. Moreover, the results for the “tumor growth (tumor volume)” value (in data set [5]; in the data set on Human H460 NSCLC cells) were “especially pronounced” and “grew much more slowly”, respectively.
